In patent publication US20220323389A1, “TREATING NON-ALCOHOLIC FATTY LIVER DISEASE AND INFLAMMATORY STEATOHEPATITIS WITH SLC25A1 INHIBITORS” (GEORGETOWN UNIVERSITY, priority 2019, published 2022):

Experiments:
[1] = tested on: C57Bl/6J mice fed with the HFD; experiment: Diet-Induced-Obesity (DIO) model: body weight, fat and organ weights of HFD-fed mice; assay type: in vivo
Text: (§1) Cells, reagents, antibodies, primers. CTPI-2 was purchased from Enamine Ltd. (Monmouth Jct, N.J.). The anti-SLC25A1 antibody used in immunoblots was either from Santa Cruz Biotech (Dallas, Tex.), (#sc-86392), employed at 1:1000 dilution, or from Proteintech (15235-1-AP, Rosemont, Ill.), employed at 1:1000 dilution. Mice and diets. For the majority of the experiments (except for experiments harboring genetic alterations of the Slc25a1 gene), DIO C57BL/6J mice were purchased from Jackson Laboratory (Bar Harbor, Me.) between 4-6 weeks of age. Mice were acclimated in the Georgetown University animal facility for at least one week. At the indicated times, mice were randomized to a standard laboratory chow diet (Labdiet #5053, St. Louis, Mo.) or the high fat diet (Researchdiets D12492, New Brunswick, N.J.), with 60% calories derived from fat (lard), and 20% from sucrose. During the course of the experiments, mice were housed at one mouse per cage and food consumption was measured regularly. Animals were maintained in a normal light-cycle and provided with water ad libitum. CTPI-2 treatment. CTPI-2 was administered at 50 mg/kg via intra-peritoneal injection on alternate days. CTPI-2 was diluted either in DMSO (at 0.2% final concentration) using DMSO as vehicle control, or in 0.47% Sodium Bicarbonate (NaCO3) at a final concentration of 14 mM. NaCO3 (0.47%) served as vehicle control. Immunoblot of murine tissues. Frozen tissue samples were homogenized in radioimmunoprecipitation (RIPA) buffer with protease inhibitor cocktails. Protein quantification was done by using a Coomassie (Bradford) Protein Assay Kit (Pierce, Waltham Mass.). Equal amount of protein lysate was loaded and separated by Novex™ 4-20% Tris-Glycine Mini Gel (Invitrogen, Carlsbad, Calif.), then transferred to a PVDF membrane. Appropriate horseradish peroxidase-conjugated secondary antibody (Invitrogen) was applied after incubation with primary antibody. SuperSignal™ West Pico PLUS Chemiluminescent Substrate (Thermo Fisher Scientific, Waltham, Mass.) was used for protein detection. SLC25a1 strains. The original Slc25a1 tm1a strain was purchased from the Mutant Mouse Resource and Research Center (MMRRC, Chapel Hill, N.C.) (C57BL/6N-Slc25a1^tm1a(EUCOMM)Wtsi, RRID: MMRRC_042258-UCD). The Tg(Alb-cre)21M (Alb-Cre) mice were purchased from Jackson Laboratory (#003574). Slc25a1^+/−, Slc25a1^fl/fl and Alb/Cre mice were genotyped by conventional PCR with genomic DNA extracted from the mouse tail biopsies. Agarose gel electrophoresis was used for analysis of PCR product analysis. The PCR conditions used were as follows: 95° C. for 4 minutes, followed by 40 cycles (95° C. for 30 seconds, 65° C. for 30 seconds, and 72° C. for 50 seconds), 72° C. for 2 min then kept in 4° C. before used. Histological Analysis. Assessment of steatosis was performed on paraffin embedded H&E stained sections derived from 3-6 animals and on multiple images for each animal. The steatosis grade was scored according to the degree of liver involvement with 0, <5%; 1, 5% to 33%; 2, 33% to 50%; and 3, >50%. Alternatively, the percentage of steatosis per area was calculated with ImageJ program. Lypidomic analysis. Targeted quantitation of triglycerides was performed using multiple reaction monitoring mass spectrometry. The samples were resolved on an CORTECS T3 2.7 μm, 2.1×30 mm column online with a triple quadrupole mass spectrometer (Xevo-TQ-S, Waters Corporation, Milford, Mass.) operating in the multiple reaction monitoring (MRM) mode. Signal intensities from all MRM Q1/Q3 ion pairs for triglycerides were ranked to ensure selection of the most intense precursor and fragment ion pair for MRM-based quantitation. […] The LC and MRM method used here for the study was developed by Waters Corporation. The metabolite ratios were calculated by normalizing the peak area of endogenous metabolites within tissue samples normalized to the internal standard. Processed data was normalized with respect to tissue weight taken for analysis. […]

[2] = tested on: mice fed with a normal diet; experiment: Body weight of mice fed control (normal) diet and treated with CTPI-2; assay type: in vivo; conditions: CTPI-2 for 5 months
Text: Cells, reagents, antibodies, primers. CTPI-2 was purchased from Enamine Ltd. (Monmouth Jct, N.J.). The anti-SLC25A1 antibody used in immunoblots was either from Santa Cruz Biotech (Dallas, Tex.), (#sc-86392), employed at 1:1000 dilution, or from Proteintech (15235-1-AP, Rosemont, Ill.), employed at 1:1000 dilution. Mice and diets. For the majority of the experiments (except for experiments harboring genetic alterations of the Slc25a1 gene), DIO C57BL/6J mice were purchased from Jackson Laboratory (Bar Harbor, Me.) between 4-6 weeks of age. Mice were acclimated in the Georgetown University animal facility for at least one week. […] During the course of the experiments, mice were housed at one mouse per cage and food consumption was measured regularly. […] Protein quantification was done by using a Coomassie (Bradford) Protein Assay Kit (Pierce, Waltham Mass.). […] The steatosis grade was scored according to the degree of liver involvement with 0, <5%; 1, 5% to 33%; 2, 33% to 50%; and 3, >50%. Alternatively, the percentage of steatosis per area was calculated with ImageJ program. […] Targeted quantitation of triglycerides was performed using multiple reaction monitoring mass spectrometry. […] Signal intensities from all MRM Q1/Q3 ion pairs for triglycerides were ranked to ensure selection of the most intense precursor and fragment ion pair for MRM-based quantitation. […]

[3] = tested on: liver of HFD-fed mice; experiment: Liver steatosis / steatohepatitis histology and serum chemistry in HFD-fed mice (time course); assay type: in vivo, mouse
Text: as §1

[4] = tested on: HFD-fed mice; experiment: Glucose homeostasis in HFD-fed mice (fasting glucose, GTT, ITT); assay type: in vivo, mouse
Text: (§2) Cells, reagents, antibodies, primers. CTPI-2 was purchased from Enamine Ltd. (Monmouth Jct, N.J.). The anti-SLC25A1 antibody used in immunoblots was either from Santa Cruz Biotech (Dallas, Tex.), (#sc-86392), employed at 1:1000 dilution, or from Proteintech (15235-1-AP, Rosemont, Ill.), employed at 1:1000 dilution. Mice and diets. For the majority of the experiments (except for experiments harboring genetic alterations of the Slc25a1 gene), DIO C57BL/6J mice were purchased from Jackson Laboratory (Bar Harbor, Me.) between 4-6 weeks of age. Mice were acclimated in the Georgetown University animal facility for at least one week. At the indicated times, mice were randomized to a standard laboratory chow diet (Labdiet #5053, St. Louis, Mo.) or the high fat diet (Researchdiets D12492, New Brunswick, N.J.), with 60% calories derived from fat (lard), and 20% from sucrose. During the course of the experiments, mice were housed at one mouse per cage and food consumption was measured regularly. Animals were maintained in a normal light-cycle and provided with water ad libitum. CTPI-2 treatment. CTPI-2 was administered at 50 mg/kg via intra-peritoneal injection on alternate days. […] Protein quantification was done by using a Coomassie (Bradford) Protein Assay Kit (Pierce, Waltham Mass.). […] The steatosis grade was scored according to the degree of liver involvement with 0, <5%; 1, 5% to 33%; 2, 33% to 50%; and 3, >50%. Alternatively, the percentage of steatosis per area was calculated with ImageJ program. […] Targeted quantitation of triglycerides was performed using multiple reaction monitoring mass spectrometry. […] Signal intensities from all MRM Q1/Q3 ion pairs for triglycerides were ranked to ensure selection of the most intense precursor and fragment ion pair for MRM-based quantitation. […] The metabolite ratios were calculated by normalizing the peak area of endogenous metabolites within tissue samples normalized to the internal standard. […]

[5] = tested on: SLC25A1; experiment: Immunoblot of SLC25A1 protein in tissues of HFD-fed mice; assay type: in vivo, mouse
Text: as §2

[6] = tested on: HFD-fed mice; experiment: Inflammation and fibrosis in HFD-fed mice (serum interleukins, macrophage IHC, RT-PCR, Picro-Sirius Red); assay type: in vivo, mouse
Text: as §1

[7] = tested on: liver gene expression program induced by the HFD; experiment: RNAseq, RT-qPCR and immunoblot of liver (and WAT) of HFD-fed mice; assay type: in vivo, mouse
Text: as §1

[8] = tested on: liver of HFD-fed mice; experiment: Liver metabolites and lipid profile (LC-MS, Lipidyzer) in HFD-fed mice; assay type: in vivo, mouse
Text: as §1

[9] = tested on: HepG2 cells; experiment: mRNA levels (RT-qPCR) in tissue culture cells treated with CTPI-2 with or without citrate; assay type: cell-based
Method: FIGS. 6 A-B show citrate and Ac-CoA levels derived from liver extracts of HFD-vehicle (light) or HFD+CTPI-2 (dark). FIGS. 6C-D show levels of the indicated triacylglycerides (TAG, (FIG. 6C)) and total fatty acids (FA, panel D) detected with the Lipidyzer platform. N=2-3 mice per group. FIG. 6E-F show levels of the indicated metabolites detected with targeted LC-MS analysis. […] The indicated mRNA levels were analyzed with RT-qPCR. H. Model summarizing findings as explained in the Examples. Bars indicate Standard Deviations. *p≤0.05, **p≤0.01, ***p≤0.001.
To corroborate the direct effect of CTPI-2 and of citrate in the regulation of the genes identified by our analysis, the effects of the drug and of citrate supplementation in tissue culture cells were explored.

[10] = target: SLC25A1 (Homo sapiens, UniProt P53007); conditions: previous studies performed in vitro (Fernandez et al.); cited from earlier work
[11] = HFD-fed mice, CTPI-2 50 mg/kg i.p. alternate days
[12] = time course of CTPI-2 treatment
[13] = HFD-fed mice, CTPI-2 vs vehicle
[14] = liver, 4 weeks of CTPI-2 treatment
[15] = liver, normalized to HFD-vehicle

Chain of SLC25A1 (Homo sapiens, UniProt P53007) (P53007 14-311, species assumed): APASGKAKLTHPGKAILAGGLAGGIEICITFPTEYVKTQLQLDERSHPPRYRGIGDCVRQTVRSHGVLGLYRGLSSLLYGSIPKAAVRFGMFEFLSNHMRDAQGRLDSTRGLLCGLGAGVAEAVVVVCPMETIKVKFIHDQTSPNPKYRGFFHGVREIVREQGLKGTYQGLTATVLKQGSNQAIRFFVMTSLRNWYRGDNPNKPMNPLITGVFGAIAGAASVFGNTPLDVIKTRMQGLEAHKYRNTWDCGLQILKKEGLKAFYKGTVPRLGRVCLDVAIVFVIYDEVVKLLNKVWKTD

O=C(O)c1ccccc1NS(=O)(=O)c1ccc(Cl)c([N+](=O)[O-])c1 [CTPI-2]
feeding behavior (daily food consumption) ([1]; C57BL/6J mice, CTPI-2 50 mg/kg i.p. on alternate days): did not modify feeding behavior | body weight gain ([1]; HFD 6 months, CTPI-2 50 mg/kg i.p. alternate days, started after 12 weeks of HFD): largely prevented such weight gain | WAT (visceral abdominal fat), also by MRI [1, 11]: reducing the WAT | WAT weight (mass) [1, 11]: reducing their mass | liver weight (mass) [1, 11]: reducing their mass | pale, enlarged liver phenotype (visual examination) [1, 11]: completely reverted this phenotype | body weights [2]: did not modify body weights | prevention of liver steatosis relative to Cre/Alb+:Slc25a1−/− mice ([3]; HFD conditions): more effectively prevented liver steatosis | alanine aminotransferase (ALT) levels [3, 11]: normalized | total serum cholesterol levels [3, 11]: normalized | serum triglyceride levels ([3]; HFD-fed mice, CTPI-2 50 mg/kg i.p. alternate days, LC-MS): normalized | evolution to steatohepatitis ([3]; HFD-fed mice, CTPI-2 started after 3 months HFD): prevented the evolution to steatohepatitis | liver steatosis ([3]; HFD-fed mice, CTPI-2 started after 3 months HFD, 4, 8, 12 weeks treatment): nearly completely reversed liver steatosis | liver histology compared with normal-diet animals ([3]; after 3 months of CTPI-2 and 6 months on the HFD, most treated mice): nearly indistinguishable from those of animals fed a normal diet | early stages of steatosis ([3]; steatosis present after 3 months HFD when CTPI-2 started): reverted these early stages of steatosis | basal fasting glucose levels ([4]; CTPI-2 50 mg/kg i.p. alternate days): reduced the basal fasting glucose levels | glucose tolerance test (GTT) [4, 12]: complete time-dependent normalization | insulin tolerance test (ITT) [4, 12]: complete time-dependent normalization | SLC25A1 expression levels in the adipose tissue [5]: reduced SLC25A1 expression levels | SLC25A1 expression levels in the liver [5]: reduced SLC25A1 expression levels | SLC25A1 expression levels in the pancreas [5]: not in the pancreas | collagen in the liver (Picro-Sirius Red) ([6]; HFD-fed mice): reduction of collagen in the liver | circulating serum IL-4 [6, 13]: increasing | circulating serum IL-6 [6, 13]: lowered | circulating serum IL-10 [6, 13]: increasing | monocyte chemo-attractant protein-1 (MCP1) ([6]; HFD-fed mice, serum): reduced | monokine induced by interferon-γ (MIG) ([6]; HFD-fed mice, serum): reduced | adipose tissue macrophage infiltration organized in crown-like structures ([6]; HFD-fed mice, IHC): completely resolved this phenotype | liver Kupffer cell macrophage population (F4/80) and perivascular macrophage infiltration ([6]; HFD-fed mice, IHC): reversed | M2 markers (MRC1, FN-1, Arg1) mRNA ([6]; liver of HFD-fed mice, RT-PCR): either not affecting or increasing | expression of anti-fibrotic cadherin 1 ([6]; liver of HFD-fed mice, RT-PCR): increase | expression of pro-fibrotic genes (collagen 1 and 4, keratin 19, PDGFR) ([6]; liver of HFD-fed mice, RT-PCR): reduction | pro-inflammatory markers of the M1 phenotype (mRNA) ([6]; liver of HFD-fed mice, RT-PCR): repressed | bile acid biosynthetic pathway (RNAseq) ([7]; liver): inhibits bile acid biosynthetic pathway | protein levels matching the gene expression pattern (immunoblot) ([7]; liver and adipose tissue): concordantly paralleled by changes in the protein levels | cluster of genes involved in NAFLD (RNAseq) [7, 14]: down-regulated | gene expression program induced by the HFD (RNAseq) [7, 14]: essentially reverted the gene expression program induced by the HFD | levels of PPARγ ([7]; liver, RT-qPCR): unchanged | PPARγ and downstream target genes CEBPα1, CEBPα2 and GLUT4 (RT-qPCR) [7, 15]: down-regulated | master lipogenetic genes SREBP1, FASN and ACACA (RT-qPCR) [7, 15]: suppression | genes/pathways of carbon and pyruvate metabolism, glycolysis and gluconeogenic genes (RNAseq) ([7]; liver, Fbp1, PC, PCK1/2, G6PC, G6PC3, AldoA/B, PFKL/P, PGK1, PKLR): repressed | Ac-CoA concentration in the liver ([8]; HFD+CTPI-2 vs HFD-vehicle): significantly lower | citrate concentration in the liver ([8]; HFD+CTPI-2 vs HFD-vehicle): significantly lower | liver diglycerides levels ([8]; LC-MS): reduced the levels | liver linoleic acid levels ([8]; LC-MS): reduced the levels | liver monoglycerides levels ([8]; LC-MS): reduced the levels | liver palmitic acid levels ([8]; LC-MS): reduced the levels | liver phosphatidylglycerol levels ([8]; LC-MS): reduced the levels | liver concentration of long chain triglycerides ([8]; Lipidyzer platform): significantly diminished | total level of free fatty acids in the liver ([8]; Lipidyzer platform, particularly chain 16 to 25): significantly diminished | liver concentration of lactate ([8]; targeted LC-MS): decreased | liver concentration of pyruvate ([8]; targeted LC-MS): decreased | effect of citrate supplementation on CTPI-2 gene inhibition (FASN, ACACA, AldoA, Aldo/B) ([9]; 5 mM sodium citrate): completely rescued by citrate | expression of FA synthesis genes FASN and ACACA ([9]; CTPI-2 5-12 hours): inhibited | expression of glycolytic/gluconeogenesis genes AldoA and Aldo/B ([9]; CTPI-2 5-12 hours): inhibited | SLC25A1 expression levels in vitro [10]: did not affect the expression levels of this protein | mitochondrial citrate transport activity [10]: interfered with the mitochondrial citrate transport activity
